The text below walks through data of ChEMBL document CHEMBL4808186, “Structure-Based Discovery of Pyrimidine Aminobenzene Derivatives as Potent Oral Reversal Agents against P-gp- and BCRP-Mediated Multidrug Resistance” (J Med Chem, 2021).

Active and inactive are the calls of the source. The calls are words filed in the database; no cut-off is given here.

The subject of series [1] is MDCK-II. Briefly: cells. The following applies: Canis lupus familiaris, 48 h.
Series [2] relates to MDCK-II. The series can be described thus: cells. The following applies: Canis lupus familiaris, 48 h. This is another data set of the same source.
The next series has as its system K562/A02. Briefly: Cytotoxicity against P-gp overexpressing human K562/A02 cells incubated for 48 hrs by MTT assay. The format is functional, cell-based. Conditions: K562/A02, 48 h. For orientation: Tetrazolium assays rely on reduction of a dye to a coloured formazan, in cell work by metabolically active cells.
Series [3] is described as follows: n-Octanol/water partition coefficient, logP of the compound by UHPLC analysis. In kind it is physicochemical.
In series [4] the test system is K562. Briefly: Cytotoxicity against human K562 cells incubated for 48 hrs by MTT assay. The format is functional, cell-based. Conditions: K562, 48 h.
The subject of series [5] is K562. The series can be described thus: cells. Conditions: Homo sapiens, K562, 48 h, read-out: Activity.
Series [6] deals with MDCK-II. The series can be described thus: Inhibition of BCRP-mediated multidrug resistance in MDCK-II cells assessed as mitoxantrone accumulation at 0.1 to 5 uM pretreated 1 hr followed by treated with mitoxantrone measured after 180 mins by flow cytometry. The following applies: Canis lupus familiaris, dose 0.1-5 µM, time 240.0 min. In kind it is cell-based. (In general: A flow cytometer gives signals particle by particle.)

The target in series [7] is T1, ATP-dependent translocase ABCB1 (Homo sapiens, UniProt P08183). Briefly: Inhibition of P-gp-mediated multidrug resistance in human K562/A02 cells assessed as Adriamycin accumulation pretreated 1 hr followed by treated with adriamycin measured after 180 mins by flow cytometry. Conditions: k562/a02, 4 h, time 240 min. The format is cell-based.
T1 sequence (P08183 whole entry): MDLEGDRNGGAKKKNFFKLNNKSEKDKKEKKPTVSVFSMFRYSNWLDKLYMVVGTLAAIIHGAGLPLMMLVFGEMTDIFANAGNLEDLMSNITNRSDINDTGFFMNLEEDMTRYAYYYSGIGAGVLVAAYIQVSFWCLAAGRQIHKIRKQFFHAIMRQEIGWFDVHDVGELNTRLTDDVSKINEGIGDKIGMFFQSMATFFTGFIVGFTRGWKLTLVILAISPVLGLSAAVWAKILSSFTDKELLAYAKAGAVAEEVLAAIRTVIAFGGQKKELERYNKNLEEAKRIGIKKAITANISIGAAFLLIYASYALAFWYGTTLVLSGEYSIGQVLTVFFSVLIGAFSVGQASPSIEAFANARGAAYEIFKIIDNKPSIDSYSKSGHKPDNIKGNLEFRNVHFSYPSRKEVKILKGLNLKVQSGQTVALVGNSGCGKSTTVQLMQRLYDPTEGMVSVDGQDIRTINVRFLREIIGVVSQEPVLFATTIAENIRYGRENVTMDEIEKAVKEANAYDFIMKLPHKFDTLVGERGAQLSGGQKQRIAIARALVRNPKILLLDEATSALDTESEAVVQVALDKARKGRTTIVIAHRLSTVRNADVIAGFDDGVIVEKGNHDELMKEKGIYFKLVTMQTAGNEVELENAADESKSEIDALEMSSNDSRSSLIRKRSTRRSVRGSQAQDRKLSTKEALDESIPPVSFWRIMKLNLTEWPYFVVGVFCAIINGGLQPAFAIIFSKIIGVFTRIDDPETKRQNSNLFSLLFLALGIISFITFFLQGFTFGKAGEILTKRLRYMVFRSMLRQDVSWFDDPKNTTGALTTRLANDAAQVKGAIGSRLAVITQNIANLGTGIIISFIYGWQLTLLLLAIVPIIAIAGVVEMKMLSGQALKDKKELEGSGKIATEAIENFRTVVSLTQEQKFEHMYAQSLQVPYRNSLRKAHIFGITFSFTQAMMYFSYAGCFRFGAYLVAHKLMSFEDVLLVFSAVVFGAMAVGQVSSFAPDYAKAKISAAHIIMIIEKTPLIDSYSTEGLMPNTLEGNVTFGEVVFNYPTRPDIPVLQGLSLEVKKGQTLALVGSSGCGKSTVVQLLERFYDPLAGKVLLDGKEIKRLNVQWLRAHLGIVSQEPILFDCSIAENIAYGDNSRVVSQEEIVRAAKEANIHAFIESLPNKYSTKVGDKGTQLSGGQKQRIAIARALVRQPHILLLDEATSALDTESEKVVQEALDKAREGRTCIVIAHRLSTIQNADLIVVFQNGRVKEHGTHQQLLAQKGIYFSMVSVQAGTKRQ
Series [8] has as its target T1, ATP-dependent translocase ABCB1. Briefly: Inhibition of P-gp-mediated multidrug resistance in human K562/A02 cells assessed as Adriamycin accumulation at 1 to 10 uM pretreated 1 hr followed by treated with adriamycin measured after 180 mins by fluorescence microscopy. In kind it is cell-based. Conditions: k562/a02, 4 h, dose 1-10 µM, time 240 min.

In the case of `COc1cc2c(cc1OC)CN(CCc1ccc(NC(=O)c3cc(=O)c4c(OC)cccc4o3)cc1)CC2`, the IC50 in the series with MDCK-II [1], with MDCK-II [2], in the series with K562/A02 (read-out: IC50) and in the series on K562 [4] was > 100 µM in each case. Also, the logP in series [3] is 0.76.

Consider `COc1cc2c(cc1OC)CN(CCNC(=O)c1ccc(C)c(Nc3nccc(-c4cccs4)n3)c1)CC2`, for which the IC50 in the series with MDCK-II [1] was 61.5 µM; with MDCK-II [2] it was > 100 µM; with K562/A02 (read-out: IC50), 72 µM; in the series on K562 [4], > 100 µM. In [3], the logP was 1.94.

`COc1cc2c(cc1OC)CN(CCNC(=O)c1ccc(C)c(Nc3nccc(-c4ccccc4)n3)c1)CC2`: the IC50 with MDCK-II [1] was 4740 µM; in the series with MDCK-II [2], > 100 µM; with K562/A02 (read-out: IC50), 66.2 µM; in the series on K562 [4] it was > 100 µM. Further, in series [3], the logP came to 1.9.

As to `Cc1ccc(NC(=O)c2ccc(CN3CCN(C)CC3)cc2)cc1Nc1nccc(-c2cccnc2)n1` [IMATINIB], in the series with K562 [5], the viability at 5 µM worked out at 81.6%. Moreover, the IC50 in the series with MDCK-II [1] is > 100 µM; in the series on MDCK-II [2] it was 65.8 µM; in the series with K562/A02, 75.7 µM; with K562 [4] it was 87.3 µM.

With `COc1cc2c(cc1OC)CN(CCNC(=O)c1ccc(C)c(Nc3nccc(-c4ccccc4O)n3)c1)CC2`, the IC50 with MDCK-II [2] was 91.4 µM; in the series with K562/A02 (read-out: IC50), 52.3 µM; in the series with K562 [4], > 100 µM. This compound also displayed a logP in series [3] of 2.31.

For the compound `COc1cc2c(cc1OC)CN(CCc1ccc(NC(=O)c3ccc(C)c(Nc4nccc(-c5ccc(F)cc5)n4)c3)cc1)CC2`, the IC50 in the series with MDCK-II [1], in the series on MDCK-II [2], in the series on K562/A02 (read-out: IC50) and in the series on K562 [4] was > 100 µM throughout. The compound further registered a logP in series [3] of 1.19.

On to `COc1cc2c(cc1OC)CN(CCNC(=O)c1ccc(C)c(Nc3nccc(-c4cccnc4)n3)c1)CC2`, for which the IC50 in the series on MDCK-II [1], in the series on MDCK-II [2], in the series with K562/A02 (read-out: IC50) and in the series with K562 [4] was > 100 µM in each case. The logP in series [3] stood at 0.8.

As for `COc1cc2c(cc1OC)CN(CCc1ccc(NC(=O)c3cc(OC)c(OC)cc3NC(=O)c3cnc4ccccc4c3)cc1)CC2`, the outcome in the series on MDCK-II [6] was Active. Also, the viability at 5 µM with K562 [5] was determined as 61.3%. The IC50 was 83.6 µM with MDCK-II [1], > 100 µM with MDCK-II [2], > 100 µM in the series on K562/A02 (read-out: IC50) and > 100 µM in the series with K562 [4]. Also, the Activity result in [7] was “Dose-Dependent Effect”; in series [8], “Active”.

In the case of `COc1cc2c(cc1OC)CN(CCNC(=O)c1ccc(C)c(Nc3nccc(-c4ccc(C)cc4)n3)c1)CC2`, the IC50 with MDCK-II [1] was 42.1 µM; in the series with MDCK-II [2] it was > 100 µM; with K562/A02 (read-out: IC50), 58.7 µM; with K562 [4], 73.8 µM.

For `COc1cc2c(cc1OC)CN(CCNC(=O)c1ccc(C)c(Nc3nccc(-c4ccccn4)n3)c1)CC2`, the IC50 in the series on MDCK-II [1] is 64.2 µM; in the series on MDCK-II [2] it was > 100 µM; in the series with K562/A02 (read-out: IC50), 89.6 µM; in the series on K562 [4], > 100 µM. In [3], this compound showed a logP of 1.71.

Consider `COc1cc2c(cc1OC)CN(CCc1ccc(NC(=O)c3cc(=O)c4cc(F)ccc4o3)cc1)CC2`, for which the IC50 in the series with MDCK-II [1] was > 100 µM; in the series with MDCK-II [2], > 100 µM; with K562/A02 (read-out: IC50), 82 µM; with K562 [4], > 100 µM.

With `COc1cc2c(cc1OC)CN(CCc1ccc(NC(=O)c3ccc(C)c(Nc4nccc(-c5ccc(C)cc5)n4)c3)cc1)CC2`, the IC50 is 61.3 µM in the series with MDCK-II [1], > 100 µM with MDCK-II [2] and > 100 µM in the series on K562 [4].

For the compound `COc1ccc(CCN(C)CCCC(C#N)(c2ccc(OC)c(OC)c2)C(C)C)cc1OC` (stereo unspecified), the IC50 in the series with K562/A02 (read-out: IC50) and in the series on K562 [4] was > 100 µM throughout. For the same compound, the Activity entry in series [7] is “Dose-Dependent Effect”; in series [8], “Active”.

Consider `COc1cc2c(cc1OC)CN(CCc1ccc(NC(=O)c3ccc(C)c(Nc4nccc(-c5ccccc5O)n4)c3)cc1)CC2`, for which the IC50 with MDCK-II [1], in the series on MDCK-II [2], with K562/A02 (read-out: IC50) and in the series on K562 [4] was > 100 µM throughout. This compound also had a logP in series [3] of 2.77.

Regarding `COc1cc2c(cc1OC)CN(CCc1ccc(NC(=O)c3ccc(C)c(Nc4nccc(-c5cccnc5)n4)c3)cc1)CC2`, the IC50 with MDCK-II [1] was > 100 µM; in the series with MDCK-II [2] it was > 100 µM; in the series on K562/A02 (read-out: IC50) it was 60.4 µM; with K562 [4], > 100 µM. Also, the logP in [3] was determined as 1.86.

On to `COc1cc2c(cc1OC)CN(CCc1ccc(NC(=O)c3cc(=O)c4c(O)cccc4o3)cc1)CC2`, for which the IC50 with MDCK-II [1] was 68.4 µM; in the series on MDCK-II [2], 85.7 µM; in the series on K562/A02 (read-out: IC50), 45.3 µM; in the series on K562 [4], > 100 µM. This compound gave a logP in series [3] of 1.78.

In the case of `COc1cc2c(cc1OC)CN(CCc1ccc(NC(=O)c3cc(=O)c4ccccc4o3)cc1)CC2`, the IC50 in the series on MDCK-II [1], in the series on MDCK-II [2], with K562/A02 (read-out: IC50) and in the series with K562 [4] was > 100 µM each time. Moreover, the logP in series [3] came to 0.93.

For the compound `COc1cc2c(cc1OC)CN(CCc1ccc(NC(=O)c3ccc(C)c(Nc4nccc(-c5ccco5)n4)c3)cc1)CC2`, the IC50 in the series with MDCK-II [1], in the series on MDCK-II [2], in the series on K562/A02 (read-out: IC50) and in the series with K562 [4] was > 100 µM each time. Also, the logP in series [3] was 1.7.

With `COc1ccc(-c2ccnc(Nc3cc(C(=O)Nc4ccc(CCN5CCc6cc(OC)c(OC)cc6C5)cc4)ccc3C)n2)cc1`, the IC50 in the series with MDCK-II [1], in the series on MDCK-II [2], in the series with K562/A02 (read-out: IC50) and in the series with K562 [4] was > 100 µM each time. This compound displayed a logP in series [3] of 1.35.

On to `COc1ccc2c3c([nH]c2c1)[C@H](CC(C)C)N1C(=O)[C@H](CCC(=O)OC(C)(C)C)NC(=O)[C@@H]1C3`, for which the outcome in the series with MDCK-II [6] was Active. Besides, the IC50 in the series on MDCK-II [1] was found to be 58.3 µM; in the series with MDCK-II [2], 87.2 µM; in the series on K562/A02 (read-out: IC50), 58.7 µM; in the series with K562 [4] it was 71.5 µM.

`COc1cc2c(cc1OC)CN(CCc1ccc(NC(=O)c3ccc(C)c(Nc4nccc(-c5cccc(O)c5)n4)c3)cc1)CC2`: the IC50 in the series with MDCK-II [1] is > 100 µM; with MDCK-II [2], > 100 µM; in the series on K562/A02 (read-out: IC50), 84.2 µM; in the series with K562 [4], > 100 µM. In [3], the logP turned out to be 2.28.

As for `COc1cc2c(cc1OC)CN(CCc1ccc(NC(=O)c3ccc(C)c(Nc4nccc(-c5ccccn5)n4)c3)cc1)CC2`, the IC50 in the series with MDCK-II [1] is > 100 µM; with MDCK-II [2] it was > 100 µM; in the series on K562/A02 (read-out: IC50), 89.6 µM; in the series on K562 [4], > 100 µM. Besides, in [3], the logP amounted to 1.73.

In the case of `COc1cc2c(cc1OC)CN(CCc1ccc(NC(=O)c3ccc(C)c(Nc4nccc(-c5ccccc5)n4)c3)cc1)CC2`, the IC50 with MDCK-II [1] is 79.7 µM; in the series with MDCK-II [2], > 100 µM; with K562/A02 (read-out: IC50) it was > 100 µM; with K562 [4], > 100 µM. Moreover, the logP in series [3] stood at 1.89.

For the compound `COc1cc2c(cc1OC)CN(CCNC(=O)c1ccc(C)c(Nc3nccc(-c4cccc(O)c4)n3)c1)CC2`, the IC50 was 72.6 µM in the series on MDCK-II [1], > 100 µM with MDCK-II [2], 57.5 µM with K562/A02 (read-out: IC50) and > 100 µM in the series on K562 [4].

Consider `COc1ccc(-c2ccnc(Nc3cc(C(=O)NCCN4CCc5cc(OC)c(OC)cc5C4)ccc3C)n2)cc1`, for which the IC50 in the series on MDCK-II [1] is 55.2 µM; in the series with MDCK-II [2], > 100 µM; in the series with K562/A02 (read-out: IC50), 64.9 µM; in the series with K562 [4] it was > 100 µM. Also, the logP in [3] amounted to 2.16.

Turning to `COc1cc2c(cc1OC)CN(CCc1ccc(NC(=O)c3ccc(C)c(Nc4nccc(-c5cccs5)n4)c3)cc1)CC2`, the IC50 with MDCK-II [1], in the series with MDCK-II [2], in the series on K562/A02 (read-out: IC50) and with K562 [4] was > 100 µM in each case. This compound yielded a logP in series [3] of 1.48.

Take `COc1cc2c(cc1OC)CN(CCNC(=O)c1ccc(C)c(Nc3nccc(-c4ccc(F)cc4)n3)c1)CC2`: the IC50 was 57.6 µM in the series with MDCK-II [1], > 100 µM with MDCK-II [2], 75.3 µM with K562/A02 (read-out: IC50) and > 100 µM in the series with K562 [4]. The compound also registered a logP in series [3] of 2.04.

Consider `COc1cc2c(cc1OC)CN(CCc1ccc(NC(=O)c3cc(=O)c4ccc(C)cc4o3)cc1)CC2`, for which the IC50 in the series with MDCK-II [1] is 88.7 µM; in the series on MDCK-II [2] it was > 100 µM; in the series with K562/A02 (read-out: IC50), > 100 µM; in the series on K562 [4], > 100 µM. The compound further registered a logP in series [3] of 1.87.

What is called IC50 is the point on the concentration scale where inhibition reaches its midpoint. Broadly, the logP is the decadic logarithm of the partition coefficient of the neutral form, usually between octanol and water. Low readings indicate a more hydrophilic compound, high ones a more lipophilic compound.
